In patent publication US9239334B2, “Fatty acid C16: 1N7-palmitoleate a lipokine and biomarker for metabolic status” (PRESIDENT AND FELLOWS OF HARVARD COLLEGE, priority 2008, dated 2016):

How the values were obtained:
[1] = system: AKT phosphorylation in C2C12 myotubes; assay: Insulin-stimulated AKT phosphorylation in C2C12 myotubes; format: cell-based
Protocol: Values of bar plot were determined by phospho-AKT ELISA and corresponding immunoblotting results are shown as Insets.
The bottom panel is the corresponding immunoblotting of total and phosphorylated AKT in cells treated with pooled lipids.
To investigate whether plasma lipids also played a role in regulating muscle insulin action, differentiated C2C12 myotubes were treated with lipid extracts from each genotype and the insulin-stimulated AKT phosphorylation determined using an ELISA system.
The effect of C16:1n7-palmitoleate on muscle insulin signaling was explored by pre-treating C2C12 myotubes with either palmitate or palmitoleate overnight and then stimulating the cells with insulin. […] Conversely, C16:1n7-palmitoleate had little effect on its own in this in vitro setting (FIG. 3G). […]
Samples of 200 μl serum were collected using heparin-coated glass tubes and spun at 13,000 g in a microcentrifuge to separate the plasma. […] Tissue protein lysates was separated with SDS-PAGE gels and phosphorylated or total proteins were detected with the following antibodies: phospho AKT Serine 473, AKT, insulin receptor, phospho-tyrosine (Santa Cruz Biotech.); IRS-1 and IRS-2 (Upstate); phospho-GSK and GSK (Cell Signaling Tech.); phospho-insulin receptor from (Calbiocbem). […]

[2] = Hyperinsulinemic-euglycemic clamp in palmitoleate-infused mice; format: in vivo
Text: FIGS. 7A-7G show data on the regulation of insulin signaling and glucose metabolism by palmitoleate. FIG. 7A is the basal and insulin-stimulated phosphorylation of insulin receptor (IR), insulin receptor substrate-1 (IRS-1) and -2 (IRS-2) and AKT in liver of mice infused with vehicle (Veh), TG:palmitoleate (C16:1n7) or TG:palmitate (C16). Representative blots are shown and quantifications on the right are averaged results of three mice in each treatment group. […] Representative blots are shown and quantifications on the right are averaged results of three mice in each treatment group.
FIG. 7G is the regulation of systemic metabolic responses by adipose-derived lipid hormones (Lipokines). In parallel with a variety of adipokines, specific lipids released from adipocytes in response to physiological stimuli act at remote sites including liver and muscle and regulate systemic lipid and carbohydrate metabolism. Lipid chaperones negatively regulate one of these lipokines, C16:1n7 (palmitoleate), and in the absence of these FABPs, strong flux of palmitoleate from adipose tissue to liver and muscle results in improved metabolic responses.
To investigate whether the increased insulin signaling by elevated serum palmitoleate can be translated into improved glucose metabolism, hyperinsulinemic-euglycemic clamp studies were performed on mice infused with either vehicle or palmitoleate. To enable delivery of lipid at a rate that is compatible with clamp studies, fatty acid:palmitoleate was used instead of TG:palmitoleate. That palmitoleate enhanced both muscle and liver insulin signaling in this setting was confirmed by examining insulin stimulated activation of insulin receptor and AKT (FIG. 21). […] Instead, the increased glucose infusion rate in these mice was driven by enhanced whole body glucose metabolism (FIG. 7F), confirming that the increased insulin signaling by palmitoleate infusion can be directly reflected as improved glycemic control in conscious mice.
INTRALIPID® fatty acid lipid infusion solution with 2 mM triglycerides:palmitate or palmitoleate were prepared using a previously described protocol with modifications (Stein et al., 1997). Briefly, lipids were dissolved in a solvent containing 5% glycerol and 0.72% phosphocholine in 0.9% saline, heated at 80° C. for 10 min, and then sonicated 1 min four times. For TG:palmitoleate, the heating was omitted to avoid oxidization of the lipids. Lipids stay in suspension for a week, so to prevent clogging the preparations must be vortexed well before loading the syringe and tubing. […] Serum FFAs were determined using a commercial kit (Wako Chem.). […]

C2C12 cells = assay: Glucose uptake in C2C12 myotubes; format: cell-based
Text: FIG. 3H is the glucose uptake in C2C12 myotubes treated with insulin or palmitoleate. Top panel is immunoblotting of C2C12 cell lysates treated with insulin or palmitoleate using anti-Glut1 or Glut4 antibodies. *: p<0.05.
The effect of C16:1n7-palmitoleate on muscle insulin signaling was explored by pre-treating C2C12 myotubes with either palmitate or palmitoleate overnight and then stimulating the cells with insulin. […] Conversely, C16:1n7-palmitoleate had little effect on its own in this in vitro setting (FIG. 3G). When cells were co-treated with both palmitate and palmitoleate, however, palmitoleate rescued the palmitate-induced reduction in insulin-stimulated AKT phosphorylation. […] The mechanism of this increase is not, apparently, associated with alterations in the absolute levels of Glut1 and Glut4 proteins (FIG. 3H).

[3] = system: MCP1, TNFalpha and IL6 expression in adipocyte fraction; assay: Cytokine expression in adipocyte fraction of epididymal fat pads; format: cell-based, mice; conditions: 500 μM for 2 hrs, compared to palmitate
Protocol: FIGS. 16A and 16B present cytokine expression in adipocyte and stromal vascular fractions treated with fatty acids. Epidydamal fat pads were dissected from WT mice and separated into adioycte and stromal vascular fractions as described in Experimental Procedures. Each fraction was treated with palmitate or palmitoleate at 500 μM for 2 hrs. Gene expression was determined with quantitative real-time PCR.
Obesity is associated with low-grade inflammation and increased inflammatory activities in liver and adipose tissues contribute to the development of systemic insulin resistance. Hotamisligil, 444 Nature 860-67 (2006). The effect of plasma lipids on adipose tissue inflammatory responses was explored using explants of adipose tissue treated with lipids from WT or FABP^−/− mice. […] Because adipose tissue contains multiple cell populations in addition to fat cells, adipose tissue was separated into adipocytes and stromal vascular fractions, and each fraction treated with either palmitate or palmitoleate.

[4] = hyperinsulinemic-euglycemic clamp, vs vehicle

## CCCCCC/C=C\CCCCCCCC(=O)O [palmitoleate, C16:1n7-palmitoleate]
[1]; C2C12 myotubes pre-treated with fatty acid overnight, then insulin
  insulin-stimulated AKT phosphorylation: little effect
[1]; co-treated with both palmitate and palmitoleate
  palmitate-induced reduction in insulin-stimulated AKT phosphorylation: rescued
[2]; [4]
  glucose infusion rate to maintain euglycemia: significantly higher
  whole body glucose metabolism (glucose disposal rate): enhanced
[2]; hyperinsulinemic-euglycemic clamp, vs vehicle controls
  clamped hepatic glucose production: Neither basal nor clamped hepatic glucose production was significantly changed
[2]; vs vehicle controls
  basal hepatic glucose production: Neither basal nor clamped hepatic glucose production was significantly changed
C2C12 cells
  glucose uptake: stimulated glucose uptake into C2C12 cells to a level similar to insulin
[3]
  cytokine expression in adipocyte fractions: suppressed
